Results on 14 molecules are retold here after patent US7579356B2, “Thia-tetraazaacenaphthylene kinase inhibitors” (Janssen Pharmaceutica NV, priority 2005, dated 2009).

Holding throughout (format): biochemical
For one test, the target named is T1, EGFR (Homo sapiens, UniProt P00533).
T1 construct: The intracellular portion of EGFR started at nucleotide 2189 (corresponding to amino acid 667) and ended at the termination codon; made in house; host or cells: Sf9 insect cells (baculovirus)
The experiment in a line: EGFR Kinase Assay. Conditions: for inhibition at 2 µM: test concentration of 2 μM, compounds without an IC50, read-out: EGFR inhibition in percent; for pIC50: GST-EGFR, ATP 5 μM. In short, it runs like this:
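GST-fused human EGFR intracellular domain (from aa 667), Sf9-expressed, phosphorylated biotinylated polyGluTyr with 5 μM ATP plus γ-33P ATP in Tris pH 8.0, MgCl2, vanadate, 1 mM DTT, 1 h at 30 °C. Streptavidin Flashplate scintillation read; triplicate 16-point half-log series from 200 uM; IC50 from % inhibition vs log concentration, else % inhibition at 2 μM.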

The next test addresses T2, HER-2 (Homo sapiens, UniProt P04626).
T2 construct: His6 with thrombin site (N); purchased Proqinase (Freiburg, Germany)
The experiment in a line: HER-2 Kinase Assay. Conditions: for inhibition at 1 µM: test concentration of 1 μM; for pIC50: value in parentheses. In short, it runs like this: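 GST/HIS6-tagged HER-2 aa 679–1255 kinase with biotinylated polyGluTyr (1.5 ng/μL), 1 μM ATP plus γ-33P-ATP, Mg2+/Mn2+, DTT, Hepes pH 7.5; 1 h at 30 °C. Substrate phosphorylation captured on streptavidin scintillation plates after EDTA/PBS washes; values are % inhibition at 1 μM or IC50.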

The next test addresses T3, c-Src kinase (human) (Homo sapiens, UniProt P12931).
T3 construct: purchased Upstate Biotechnology, Lake Placid, N.Y
As to the kind of experiment: c-Src Kinase Assay. Particulars: test concentration of 2 μM; multiple values are separate assay results. In short, it runs like this: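 Inhibition was read as 33P incorporation, counted on P30 filtermats, after a 40 min, 30° C reaction. Human c-Src acted on 100 μM Cdc2 peptide with 5 μM ATP (final), pH 7.0 MOPS/MgCl2. Values are percent inhibition at 2 μM compound, or IC50 where determined.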

For the next test, the target named is T4, Lyn kinase (human) (Homo sapiens, UniProt P07948).
T4 construct: purchased Upstate Biotechnology, Lake Placid, N.Y
T4 sequence (P07948 whole entry): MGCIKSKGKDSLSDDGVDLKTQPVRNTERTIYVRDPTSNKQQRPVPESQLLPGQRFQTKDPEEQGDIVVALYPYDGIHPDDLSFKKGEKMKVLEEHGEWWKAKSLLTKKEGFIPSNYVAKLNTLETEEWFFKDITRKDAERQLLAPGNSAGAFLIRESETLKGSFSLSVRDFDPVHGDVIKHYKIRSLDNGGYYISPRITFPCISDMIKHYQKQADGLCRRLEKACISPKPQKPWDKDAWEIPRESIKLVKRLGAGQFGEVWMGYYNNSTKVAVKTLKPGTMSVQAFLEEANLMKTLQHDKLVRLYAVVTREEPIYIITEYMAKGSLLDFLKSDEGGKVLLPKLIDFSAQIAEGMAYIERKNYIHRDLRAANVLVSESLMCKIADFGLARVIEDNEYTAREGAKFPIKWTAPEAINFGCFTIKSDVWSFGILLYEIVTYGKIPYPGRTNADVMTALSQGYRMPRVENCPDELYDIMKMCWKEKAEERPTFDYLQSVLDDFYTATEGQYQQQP
The experiment in a line: Lyn Kinase Assay. Conditions: test concentration of 2 μM. As for the experimental part: A mixture of a 10× kinase buffer (500 mM MOPS at pH 7.5, 1 mM EGTA, 1 mM Sodium Vanadate, 1% β-mercaptoethanol and 100 mM Magnesium Acetate), ATP (5 μM final from a 10 mM stock), polyGluTyr (0.1 mg/mL final from a 1 mg/mL stock), γ-^33P ATP (10 μCl/μL stock) and water (for a total of 20 μL/well) was added to each well of a Streptavidin Flashplate.
Test compound in 100% DMSO (0.5 μL) was added to the appropriate wells. Diluted Lyn kinase (human)(Accession Number EMBL M16038) (Upstate Biotechnology, Lake Placid, N.Y.) (diluted in a buffer consisting of 50 mM Tris at pH 7.5, 0.1 mM EGTA, Sodium Vanadate (0.1 mM), β-mercaptoethanol (0.1%) and 1 mg/mL bovine serum albumin) (2.5 μL) was added to the wells to initiate the reactions.
The reaction plates were incubated at 30° C. for 40 min. The reaction was terminated by the addition of a 3% phosphoric acid solution (5 μL). The reaction product (10 μL) was spotted onto a P30 filtermat and washed for 5 minutes in phosphoric acid (75 mM). The wash sequence was repeated two more times, followed with one final wash in methanol. The plates were then dried, sealed and read on the TopCount scintillation counter after adding 30 μL scintillation fluid.
The Lyn inhibition values were derived according to the procedure described in Example 164 and are shown as percent in Table 3 at a test concentration of 2 μM. For those compounds with an IC50, the IC50 value in μM is shown in parentheses. For compounds with multiple test values, each value represents a separate assay result.

In general, inhibition refers to the change of the read-out against control, counted positive when it falls. Broadly, the pIC50 is −log10 of the IC50, conventionally taken in molar units.

pIC50: −log10 of the molar value.

T1 sequence (P00533 669-1210 limits assumed): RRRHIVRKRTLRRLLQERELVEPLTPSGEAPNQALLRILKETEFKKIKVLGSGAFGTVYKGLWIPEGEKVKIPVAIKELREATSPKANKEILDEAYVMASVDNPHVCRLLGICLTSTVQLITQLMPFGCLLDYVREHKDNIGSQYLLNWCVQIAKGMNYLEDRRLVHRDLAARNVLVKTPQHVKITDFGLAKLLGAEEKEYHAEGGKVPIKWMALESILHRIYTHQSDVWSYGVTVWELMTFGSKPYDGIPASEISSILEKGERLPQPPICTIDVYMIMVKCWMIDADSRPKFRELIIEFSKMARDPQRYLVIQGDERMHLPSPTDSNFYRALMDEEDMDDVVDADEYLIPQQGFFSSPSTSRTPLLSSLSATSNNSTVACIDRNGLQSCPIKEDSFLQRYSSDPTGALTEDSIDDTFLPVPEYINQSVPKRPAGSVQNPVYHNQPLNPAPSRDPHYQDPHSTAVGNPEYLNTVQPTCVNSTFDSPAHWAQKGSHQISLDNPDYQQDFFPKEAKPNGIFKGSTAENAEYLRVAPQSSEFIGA
T3 sequence (P12931 whole entry): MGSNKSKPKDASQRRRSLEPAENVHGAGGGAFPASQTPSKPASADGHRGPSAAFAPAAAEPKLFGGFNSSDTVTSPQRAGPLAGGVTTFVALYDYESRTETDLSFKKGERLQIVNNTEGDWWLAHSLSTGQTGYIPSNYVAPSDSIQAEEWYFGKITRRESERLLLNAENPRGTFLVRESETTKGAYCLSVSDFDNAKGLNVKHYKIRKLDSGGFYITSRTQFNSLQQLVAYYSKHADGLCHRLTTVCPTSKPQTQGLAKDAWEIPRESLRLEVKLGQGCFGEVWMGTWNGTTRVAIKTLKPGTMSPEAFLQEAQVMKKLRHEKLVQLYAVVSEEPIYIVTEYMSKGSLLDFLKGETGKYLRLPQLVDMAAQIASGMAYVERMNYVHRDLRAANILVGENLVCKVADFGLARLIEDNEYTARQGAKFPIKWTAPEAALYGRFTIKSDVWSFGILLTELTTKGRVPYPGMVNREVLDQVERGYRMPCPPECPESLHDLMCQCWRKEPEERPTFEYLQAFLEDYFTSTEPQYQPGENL
T2 sequence (P04626 679-1255): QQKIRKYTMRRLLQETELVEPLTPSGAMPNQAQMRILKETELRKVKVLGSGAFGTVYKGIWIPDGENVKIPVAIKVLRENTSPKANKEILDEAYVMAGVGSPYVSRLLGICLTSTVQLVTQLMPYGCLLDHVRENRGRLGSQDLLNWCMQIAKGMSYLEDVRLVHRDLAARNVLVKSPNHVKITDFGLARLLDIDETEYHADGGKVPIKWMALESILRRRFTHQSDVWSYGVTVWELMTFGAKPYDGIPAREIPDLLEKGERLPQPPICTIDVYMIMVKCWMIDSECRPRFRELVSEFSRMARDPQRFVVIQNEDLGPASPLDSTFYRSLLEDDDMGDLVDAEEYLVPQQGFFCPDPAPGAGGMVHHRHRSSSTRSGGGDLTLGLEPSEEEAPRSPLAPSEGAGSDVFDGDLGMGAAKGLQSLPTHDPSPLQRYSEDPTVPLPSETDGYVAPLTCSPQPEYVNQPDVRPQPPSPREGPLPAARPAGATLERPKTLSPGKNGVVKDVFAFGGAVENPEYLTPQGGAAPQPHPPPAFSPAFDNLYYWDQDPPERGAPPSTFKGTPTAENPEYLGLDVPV

Take `O=C(Nc1ccc(CN2CCCCC2)cc1)c1sc2ncnc3c2c1NC(=O)N3c1cc(OCc2cccc(F)c2)c(Cl)cc1Cl` [Cpd 57, 5-[2,4-dichloro-5-(3-fluoro-benzyloxy)-phenyl]-4-oxo-4,5-dihydro-3H-1-thia-3,5,6,8-tetraaza-acenaphthylene-2-carboxylic acid (4-piperidin-1-ylmethyl-phenyl)-amide]: the values for the inhibition at 2 µM on EGFR, on c-Src kinase (human) and at Lyn kinase (human) were 12%, -16% and 1%, respectively. Moreover, the inhibition at 1 µM at HER-2 is -20%.

Turning to `O=C(O)c1sc2ncnc3c2c1NC(=O)N3c1cc(OCc2cccc(F)c2)c(Cl)cc1Cl` [Cpd 58, 5-[2,4-dichloro-5-(3-fluoro-benzyloxy)-phenyl]-4-oxo-4,5-dihydro-3H-1-thia-3,5,6,8-tetraaza-acenaphthylene-2-carboxylic acid], the inhibition at 2 µM on EGFR is 16%; against c-Src kinase (human), -48%; at Lyn kinase (human), 6%. Moreover, the inhibition at 1 µM on HER-2 was -27%.

`CN(Cc1ccc(NC(=O)c2sc3ncnc4c3c2NC(=O)N4c2cc(OCc3cccc(F)c3)c(Cl)cc2Cl)cc1)C[C@H]1CCCO1` [Cpd 59, 5-[2,4-dichloro-5-(3-fluoro-benzyloxy)-phenyl]-4-oxo-4,5-dihydro-3H-1-thia-3,5,6,8-tetraaza-acenaphthylene-2-carboxylic acid [4-({methyl-[(2R)-tetrahydro-furan-2-ylmethyl]-amino}-methyl)-phenyl]-amide]: the inhibition at 2 µM is 20% on EGFR, -13% on c-Src kinase (human) and 8% against Lyn kinase (human). Further, at HER-2, the inhibition at 1 µM was -18%.

Regarding `CN1CCN(Cc2ccc(NC(=O)c3sc4ncnc5c4c3NC(=O)N5c3cc(OCc4cccc(F)c4)c(Cl)cc3Cl)cc2)CC1` [Cpd 61, 5-[2,4-dichloro-5-(3-fluoro-benzyloxy)-phenyl]-4-oxo-4,5-dihydro-3H-1-thia-3,5,6,8-tetraaza-acenaphthylene-2-carboxylic acid [4-(4-methyl-piperazin-1-ylmethyl)-phenyl]-amide], the inhibition at 2 µM was 9% at EGFR, -2% on c-Src kinase (human) and 30% at Lyn kinase (human). Also, the inhibition at 1 µM against HER-2 is -11%.

On to `COc1ccc(N2C(=O)Nc3c(C(=O)Nc4ccc(CN5CCOCC5)cc4)sc4ncnc2c34)c(F)c1` [Cpd 65, 5-(2-fluoro-4-methoxy-phenyl)-4-oxo-4,5-dihydro-3H-1-thia-3,5,6,8-tetraaza-acenaphthylene-2-carboxylic acid (4-morpholin-4-ylmethyl-phenyl)-amide], for which the pIC50 is 6.92 at EGFR and 6.19 at HER-2. Besides, on HER-2, the inhibition at 1 µM amounted to 58%. The inhibition at 2 µM at c-Src kinase (human) was -9%; at Lyn kinase (human) it was 17.8%.

Take `COc1ccc(N2C(=O)Nc3c(C(=O)Nc4ccc(OCCN5CCOCC5)c(OC)c4)sc4ncnc2c34)c(F)c1` [Cpd 67, 5-(2-fluoro-4-methoxy-phenyl)-4-oxo-4,5-dihydro-3H-1-thia-3,5,6,8-tetraaza-acenaphthylene-2-carboxylic acid [3-methoxy-4-(2-morpholin-4-yl-ethoxy)-phenyl]-amide]: the pIC50 against EGFR was 6.99; on HER-2, 6.02. Further, the inhibition at 1 µM on HER-2 was 51%. Also, the values for the inhibition at 2 µM at c-Src kinase (human) and on Lyn kinase (human) were -17% and 22.5%, respectively.

For the molecule `O=C(NCCN1CCOCC1)c1sc2ncnc3c2c1NC(=O)N3c1ccc(Oc2ccccc2)cc1` [Cpd 105, 4-oxo-5-(4-phenoxy-phenyl)-4,5-dihydro-3H-1-thia-3,5,6,8-tetraaza-acenaphthylene-2-carboxylic acid (2-morpholin-4-yl-ethyl)-amide], the pIC50 against EGFR was 6.96; on HER-2, 5.50. The inhibition at 2 µM at c-Src kinase (human) is 12%; at Lyn kinase (human), -3%.

As to `O=C(NCCCO)c1sc2ncnc3c2c1NC(=O)N3c1ccc(Oc2ccccc2)cc1` [Cpd 106, 4-oxo-5-(4-phenoxy-phenyl)-4,5-dihydro-3H-1-thia-3,5,6,8-tetraaza-acenaphthylene-2-carboxylic acid (3-hydroxy-propyl)-amide], the pIC50 was 7.38 at EGFR and 6.11 at HER-2. Moreover, the values for the inhibition at 2 µM against c-Src kinase (human) and at Lyn kinase (human) were 30% and 27%, respectively.

Consider `O=C(O)c1sc2ncnc3c2c1NC(=O)N3c1ccc(Oc2ccccc2)c(F)c1` [Cpd 112, 5-(3-fluoro-4-phenoxy-phenyl)-4-oxo-4,5-dihydro-3H-1-thia-3,5,6,8-tetraaza-acenaphthylene-2-carboxylic acid], for which the pIC50 against EGFR was 5.99; on HER-2, 5.30. For the same molecule, the inhibition at 2 µM is -16% against c-Src kinase (human) and 30% at Lyn kinase (human).

As for `CN1CCN(Cc2ccc(NC(=O)c3sc4ncnc5c4c3NC(=O)N5c3ccc(Oc4ccccc4)c(F)c3)cc2)CC1` [Cpd 115, 5-(3-fluoro-4-phenoxy-phenyl)-4-oxo-4,5-dihydro-3H-1-thia-3,5,6,8-tetraaza-acenaphthylene-2-carboxylic acid [4-(4-methyl-piperazin-1-ylmethyl)-phenyl]-amide], the pIC50 was 7.38 against EGFR and 6.74 on HER-2. Further, the inhibition at 2 µM is -1% against c-Src kinase (human) and 51.2% at Lyn kinase (human).

As for `Cc1ccc(Oc2ccc(N3C(=O)Nc4c(C(=O)Nc5ccc(CN6CCOCC6)cc5)sc5ncnc3c45)cc2C)cn1` [Cpd 119, 5-[3-methyl-4-(6-methyl-pyridin-3-yloxy)-phenyl]-4-oxo-4,5-dihydro-3H-1-thia-3,5,6,8-tetraaza-acenaphthylene-2-carboxylic acid (4-morpholin-4-ylmethyl-phenyl)-amide], the pIC50 on EGFR was 5.74; at HER-2, 5.96. In addition, the inhibition at 2 µM was -17% against c-Src kinase (human) and -47% against Lyn kinase (human).

For the molecule `COc1ccc(N2C(=O)Nc3c(C(=O)Nc4ccc(CCN5CCCCC5)cc4)sc4ncnc2c34)cc1Cl` [Cpd 120, 5-(3-chloro-4-methoxy-phenyl)-4-oxo-4,5-dihydro-3H-1-thia-3,5,6,8-tetraaza-acenaphthylene-2-carboxylic acid [4-(2-piperidin-1-yl-ethyl)-phenyl]-amide], the pIC50 was 5.97 against EGFR and 4.93 at HER-2. For the same molecule, the inhibition at 2 µM against c-Src kinase (human) was -5%; against Lyn kinase (human), 0%.

On to `COc1ccc(N2C(=O)Nc3c(C(=O)Nc4ccc(CN5CCCCC5)cc4)sc4ncnc2c34)cc1Cl` [Cpd 121, 5-(3-chloro-4-methoxy-phenyl)-4-oxo-4,5-dihydro-3H-1-thia-3,5,6,8-tetraaza-acenaphthylene-2-carboxylic acid (4-piperidin-1-ylmethyl-phenyl)-amide], for which the pIC50 against EGFR was 6.46; at HER-2 it was 5.45. Moreover, the values for the inhibition at 2 µM at c-Src kinase (human) and on Lyn kinase (human) were -1% and -13%, respectively.

As for `COc1ccc(N2C(=O)Nc3c(C(=O)Nc4ccc(CN5CCOCC5)cc4)sc4ncnc2c34)cc1Cl` [Cpd 122, 5-(3-chloro-4-methoxy-phenyl)-4-oxo-4,5-dihydro-3H-1-thia-3,5,6,8-tetraaza-acenaphthylene-2-carboxylic acid (4-morpholin-1-ylmethyl-phenyl)-amide], the negative-log IC50 (pIC50) against EGFR is 6.65; on HER-2, 5.84. In addition, the inhibition at 2 µM at c-Src kinase (human) is -9%; on Lyn kinase (human), 3%.
